The test system of one assay is HMVEC monolayer. The experiment in a line: Endothelial monolayer permeability (transwell, RITC-dextran). As to conditions: by 72 hours. The format is cell-based, human. As to the method: The following day, an additional 50,000 cells were seeded to each insert and allowed to grow for another 24 hours. Media was then removed and replaced with 0.5 mL media to the bottom well and 0.1 mL of treatment media to the insert for 10 minutes. Treatment was removed and 0.3 mL of 1 mg/mL RITC-dextran in media was then added to each transwell insert and allowed to permeate for 30 minutes. Sample permeate was then assayed on a SpectraMax M5 plate reader for fluorescence (excitation: 570 nm; emission: 590 nm). RITC-dextran solutions and sample permeates were then aspirated and replaced with another 0.1 mL of treatment media in the transwell insert and 0.5 mL media in the bottom chamber. This procedure was repeated daily over 4 days. Treatments were also compared to inserts with cells removed by rubbing away with a pipette tip to determine the barrier efficacy of the monolayer and the degree of increased permeability.

The subject of assay [1] is chick chorioallantoic membrane. The experiment in a line: Ex ovo CAM assay, treatments eluting from collagen gels. As to conditions: after 24 hours. It is filed as in vivo. The method, then:
Fertilized Hyline eggs obtained from the Avian Facility at UC Davis were incubated at 37° C. for 72 hours with 6 rotations per day at 80% humidity in a Grumbach egg incubator. On day 3, eggs were cracked open into disinfected weighboats (VWR) and covered with lids from square petri dishes (Fisher), and the embryos developed over a week in the incubator. On day 10, treatments encapsulated in collagen I gels were gently placed on the developing CAM. For experiments involving treatments freely eluting from the collagen gels, 100 μL of gel was polymerized in a 10-mm diameter rubber mold against a sterilized glass slide, and 1 treatment gel and 1 control gel was placed per CAM. The number of vessels in a 2-mm radius immediately surrounding the gel was manually counted in imageJ immediately after placement and 24 hours later to determine changes surrounding vessels. The change in vessels over 24 hours for treatment gels were normalized to the respective change in the control gel on the same developing embryo.

The next assay relates to ischemic wounds. Particulars: exogenous VEGF; cited from earlier work.
A further assay concerns VEGFR2. Briefly: Western-blot, phosphorylation of VEGFR2 (Tyr1175). It is filed as cell-based. As to conditions: surface-grafted LXW7. From the text: (§1) FIG. 34. Effects of LXW7 on EC biological functions. (A) Proliferation of ECs on LXW7-treated surfaces and D-biotin treated surface (control) assessed by MTS assay. Data were expressed as mean±standard deviation: **p<0.01, ***p<0.001 (n=4). (B) Western-blot analysis of the effect of LXW7 on phosphorylation of VEGFR2 (Tyr1175) and phosphorylation of ERK1/2 (left panels) and quantified by densitometry (right panels). Data were expressed as mean±standard deviation: *p<0.05, **p<0.01 (n=4).
(§2) To test the ability of LXW7 to promote endothelialization, we evaluated polymer-based small diameter vascular grafts (ID 1 mm) functionalized with LXW7 via Click chemistry in a rat carotid artery bypass model (FIG. 35). […] After 6 weeks post implantation, 5 out of 6 LXW7-modified grafts were patent versus only 1 out of 6 control grafts was patent (FIG. 35). […] This confirms that LXW7 coating on the luminal surface of synthetic vascular grafts can generate a “living” endothelium.

The subject of assay [2] is platelets. The experiment in a line: LXW7 binding to platelets. The format is cell-based. The method, then:
(§3) Using primary artery-derived ECs and blood-derived EPCs as living probes to screen One-Bead-One-Compound (OBOC) combinatorial peptide libraries, several high-affinity binding ligands against the αvβ3 integrin on the surface of EPCs/ECs were identified. […] The LXW7 peptide, when grafted to surfaces, supports adhesion and spreading of EPCs and human coronary ECs, but not platelets or monocytes. Culture plates, 24-well, were coated with 500 μL of 20 μg/mL Avidin for 1 hour at 37° C. followed by washing with PBS and coating with either 500 μL molar equivalents of D-biotin, LXW7-biotin, or GRGD (SEQ ID NO: 2)-biotin. After washing with PBS and blocking with 1% BSA wells were ready for cell attachment with 5×10^4 HCAECs or THP-1 monocytes suspended in the respective maintenance medium, or freshly isolated platelets at a density of 5×10^7 platelets/cm^2 incubated for 16 h at 37° C., 5% CO2. The cells were washed with PBS, and fixed in 10% formalin for 20 min. For evaluation of HCAEC, the cells were blocked with 1% BSA and incubated overnight with mouse anti-CD31 antibody (1:100; Abcam) in 1% BSA at 4° C., followed by probing with goat anti-mouse Alexa Fluor 594 conjugate in 1% BSA. Nuclei were stained with DAPI. Images were captured using an Olympus IX81 microscope. […] Quantification of images was performed using the Image J software (NIH).

In assay [3] the test system is THP-1 monocytes. The experiment in a line: Attachment of THP-1 monocytes to peptide-treated surfaces. The format is cell-based. As to conditions: biotin-peptide on Avidin-coated wells. An excerpt:
(§4) FIG. 33. Attachment of cells and platelets to LXW7 and GRGD (SEQ ID NO: 2) treated surfaces. (A) Images of attached HCAECs (left panels), THP-1 monocytes (middle panels) and platelets (right panels) on surfaces treated by D-Biotin (a-c) (control), LXW7 (d-f) or GRGD (SEQ ID NO: 2) (g-i). Scale bars in a, b, d, e, g and h are 50 μm. Scale bars in c, f and i are 20 μm. (B) The number of cells or platelets attached on different treated surfaces were quantified and statistical analyses were performed. Data were expressed as mean±standard deviation: **p<0.01 (n=4).
(§5) Using primary artery-derived ECs and blood-derived EPCs as living probes to screen One-Bead-One-Compound (OBOC) combinatorial peptide libraries, several high-affinity binding ligands against the αvβ3 integrin on the surface of EPCs/ECs were identified. […] The LXW7 peptide, when grafted to surfaces, supports adhesion and spreading of EPCs and human coronary ECs, but not platelets or monocytes. […] After washing with PBS and blocking with 1% BSA wells were ready for cell attachment with 5×10^4 HCAECs or THP-1 monocytes suspended in the respective maintenance medium, or freshly isolated platelets at a density of 5×10^7 platelets/cm^2 incubated for 16 h at 37° C., 5% CO2. […] Quantification of images was performed using the Image J software (NIH).

In a further assay the test system is ECs. The experiment in a line: Proliferation of ECs on LXW7-treated surfaces (MTS assay). The format is cell-based. As to conditions: surface-grafted LXW7 vs D-biotin control.
From the text: as §1, §2
Background: Tetrazolium assays rely on reduction of a dye to a coloured formazan, in cell work by metabolically active cells.

For another assay, the system named is ERK1/2. Briefly: Western-blot, phosphorylation of ERK1/2. It is filed as cell-based. As to conditions: surface-grafted LXW7.
From the text: as §1, §2

For assay [4], the system named is platelets. The experiment in a line: Attachment of platelets to peptide-treated surfaces. The format is cell-based. Particulars: biotin-peptide on Avidin-coated wells.
From the text: as §4, §5

In a further assay the test system is primary EPCs/ECs. The experiment in a line: LXW7 binding to primary EPCs/ECs. It is filed as cell-based. As to the method: as §3
Assay [5] deals with THP-1 monocytes. The experiment in a line: LXW7 binding to THP-1 monocytes. It is filed as cell-based. As to the method: as §3
The next assay relates to HCAECs. Briefly: Attachment of HCAECs to peptide-treated surfaces. It is filed as cell-based, human. As to conditions: biotin-peptide on Avidin-coated wells.
From the text: as §4, §5

Positions of bridges follow the written chain, without caps; N, C: chain ends. Non-standard residues stand in square brackets, D forms with d. No end group written: not given here.

Regarding VEGF, the “monolayer permeability vs untreated controls” value in the assay on HMVEC monolayer is listed as “significantly different from untreated controls”. The vasculogenic activity result in [1] (2 μg/mL) is reported as “comparable vasculogenic activity”. For the same substance, the “increase in granulation tissue formation” value in the assay with ischemic wounds was “up to 150%”.

In the case of “cyclic cGRGDdvc ([dC]GRGD[dD][dV][dC]; disulfide 1-8 (inferred)) [LXW7, cyclic octapeptide ligand against the αvβ3 integrin]”, the “phosphorylation of VEGF2 receptor” value with VEGFR2 was “stimulated”. Besides, the binding to platelets entry in the assay on platelets [2] is reported as “weakly”. Also, the surrounding vessel growth result in [1] (100 μM eluted from collagen gels) is “either decreased or caused no changes in surrounding vessel growth”. For the same substance, the “monocyte binding to treated surface” value with THP-1 monocytes [3] is given as “not monocyte or platelet binding”. Moreover, the cell proliferation entry in the assay with ECs is on record as “stimulated cell proliferation”. In the assay on ERK1/2, the “phosphorylation of ERK ½” value is reported as “stimulated”. In addition, the “platelet binding to treated surface” value in the assay with platelets [4] is listed as “not monocyte or platelet binding”. Also, the “binding to primary EPCs/ECs” value in the assay with primary EPCs/ECs is on record as “bind strongly”. The “binding to THP-1 monocytes” value in the assay on THP-1 monocytes [5] was “does not bind”. The “HCAEC binding to treated surface” value in the assay with HCAECs was “supported robust HCAEC binding”.

(Values after patent publication US12485182B2, “Proteoglycan mimetics for enhanced wound healing, angiogenesis, and vascular repair” (The Regents of the University of California, priority 2018, dated 2025).)
